Legend:
Assay in all cases: relative viability (nuclei count vs DMSO), 5 days (fraction); higher = more cells survive
[1] = compound: O=C(O)C(Cc1ccccc1[N+](=O)[O-])=NNc1nc(-c2ccc(Cl)c(Cl)c2)cs1 (mixture of isomers) [4EGI-1] + CC1(C)CCC(c2ccc(Cl)cc2)=C(CN2CCN(c3ccc(C(=O)NS(=O)(=O)c4ccc(N[C@H](CCN5CCOCC5)CSc5ccccc5)c(S(=O)(=O)C(F)(F)F)c4)cc3)CC2)C1 [Navitoclax] (partner 0.5 µM)
Procedure, shortened: (§1)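 Values are medians from duplicate plates. Each reflects relative viability, defined as the nuclei count of treated wells over that of vehicle wells. Lung cancer cell lines in 1536-well plates were pin-tool dosed one day after seeding with one drug alone or with a fixed anchor-drug dose plus five library-drug doses (not always all listed) in √10 steps, then fixed, stained and imaged at 4× after 5 days.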

[2] = compound: CN1CCN(CC1)C2=CC(=C(C=C2)NC3=NC=C4C(=N3)N(C5=CC=CC=C5C(=O)N4C)C)OC [XMD8-85] + C[C@@H](Oc1cc(-c2cnn(C3CCNCC3)c2)cnc1N)c1c(Cl)ccc(F)c1Cl [Crizotinib] (partner 1 µM)
Procedure, shortened: as §1

[3] = compound: O=C(O)C(Cc1ccccc1[N+](=O)[O-])=NNc1nc(-c2ccc(Cl)c(Cl)c2)cs1 (mixture of isomers) [4EGI-1] + Cc1nc(Nc2ncc(C(=O)Nc3c(C)cccc3Cl)s2)cc(N2CCN(CCO)CC2)n1 [Dasatinib] (partner 0.075 µM)
Procedure, shortened: as §1

[4] = compound: O=C(O)C(Cc1ccccc1[N+](=O)[O-])=NNc1nc(-c2ccc(Cl)c(Cl)c2)cs1 (mixture of isomers) [4EGI-1] + CCNC(=O)c1noc(-c2cc(C(C)C)c(O)cc2O)c1-c1ccc(CN2CCOCC2)cc1 [Luminespib] (partner 0.01 µM)
Procedure, shortened: as §1

Row | Cell Line | relative viability ([1]; first compound 0.5 µM) | relative viability ([1]; first compound 1.581 µM) | relative viability ([1]; first compound 5 µM) | relative viability ([1]; first compound 15.81 µM) | relative viability ([1]; first compound 50 µM) | relative viability ([2]; first compound 0.253 µM) | relative viability ([2]; first compound 0.8 µM) | relative viability ([2]; first compound 2.53 µM) | relative viability ([2]; first compound 8 µM) | relative viability ([3]; first compound 0.5 µM) | relative viability ([3]; first compound 5 µM) | relative viability ([3]; first compound 15.81 µM) | relative viability ([3]; first compound 50 µM) | relative viability ([2]; first compound 0.08 µM) | relative viability ([4]; first compound 0.5 µM) | relative viability ([4]; first compound 1.581 µM) | relative viability ([4]; first compound 5 µM) | relative viability ([4]; first compound 15.81 µM) | relative viability ([4]; first compound 50 µM) | relative viability ([3]; first compound 1.581 µM)
1 | NCI-H1703 | 1.54 | 1.06 | 1.6 | 1.19 | 0.427 | 0.586 | 0.649 | 0.47 | 0.315 |  |  |  |  |  |  |  |  |  |  | 
2 | HCC-15 | 0.797 | 0.781 | 0.744 | 0.685 | 0.494 | 0.859 | 0.855 | 0.806 | 0.592 | 0.642 | 0.612 | 0.511 | 0.308 | 0.852 | 0.25 | 0.437 | 0.268 | 0.157 | 0.152 | 
3 | SW 900 |  |  |  |  |  |  |  |  |  | 0.641 | 0.528 | 0.487 | 0.547 |  | 0.253 |  | 0.177 | 0.156 | 0.191 | 
4 | HCC-78 | 0.96 | 0.492 | 0.753 | 0.829 | 0.802 | 0.364 | 0.304 | 0.37 | 0.295 | 0.41 | 0.383 | 0.34 | 0.357 | 0.363 |  |  |  |  |  | 
5 | HCC-44 | 0.957 | 0.596 | 0.949 | 0.958 | 0.35 | 0.769 | 0.821 | 0.802 | 0.301 |  |  |  |  | 0.795 | 1.22 |  | 0.979 | 0.764 | 0.23 | 
6 | NCI-H1395 | 1.38 |  | 1.27 | 1.09 | 0.566 |  |  |  |  | 0.423 | 0.436 | 0.442 | 0.32 |  | 0.717 | 0.436 | 0.766 | 0.789 | 0.496 | 0.471
7 | NCI-H522 |  |  |  |  |  |  |  |  |  | 1.02 | 0.858 | 0.893 | 0.556 |  | 1.18 | 0.612 | 1.13 | 1.33 | 0.711 | 0.735
8 | EBC-1 | 0.525 | 0.402 | 0.624 | 0.308 | 0.142 | 0.189 | 0.184 | 0.186 | 0.114 |  |  |  |  | 0.197 |  |  |  |  |  | 
9 | LCLC-103H |  |  |  |  |  | 1.07 | 1.14 | 1.07 | 0.761 | 0.531 | 0.503 | 0.523 | 0.236 | 0.973 | 0.984 | 0.898 | 0.989 | 0.82 | 0.618 | 0.503
10 | HCC-366 | 1.18 | 0.954 | 1.14 | 1.15 | 1.01 |  | 0.586 | 0.481 | 0.136 | 0.772 | 0.629 | 0.67 | 0.308 | 0.388 |  |  |  |  |  | 0.587
11 | NCI-H1299 | 1.1 | 1.04 | 1.04 | 0.986 | 1.08 | 0.962 | 1.03 | 0.928 | 0.601 |  |  |  |  | 0.983 |  |  |  |  |  | 
12 | ABC-1 |  |  |  |  |  | 0.882 | 1.41 | 0.994 | 0.49 | 0.585 | 0.586 | 0.38 | 0.192 | 1.3 | 0.83 | 0.326 | 0.792 | 0.402 | 0.201 | 0.501
13 | NCI-H358 |  |  |  |  |  | 0.465 | 0.816 | 0.506 | 0.248 | 0.151 | 0.183 | 0.139 | 0.0975 | 0.674 | 0.339 | 0.353 | 0.293 | 0.224 | 0.153 | 0.16
14 | NCI-H650 |  |  |  |  |  | 0.603 | 0.712 | 0.57 | 0.345 | 0.5 | 0.463 | 0.459 | 0.297 | 0.6 | 0.825 |  | 0.878 | 0.646 | 0.784 | 
15 | NCI-H661 |  |  |  |  |  | 1.16 | 0.905 | 1.1 | 0.854 | 1.2 | 0.785 | 0.517 | 0.262 | 1.03 | 0.883 | 0.76 | 0.798 | 0.606 | 0.505 | 0.831
16 | NCI-H1623 |  |  |  |  |  |  |  |  |  | 0.507 | 0.575 | 0.437 | 0.414 |  | 0.637 | 0.553 | 0.707 | 0.383 | 0.387 | 0.446
17 | Calu-6 | 0.909 | 0.759 | 1.01 | 0.847 | 0.213 | 0.607 | 0.894 |  | 0.396 |  |  |  |  | 0.689 |  |  |  |  |  | 
18 | NCI-H1563 |  |  |  |  |  | 0.812 | 0.72 | 0.841 | 0.757 | 0.441 | 0.441 | 0.494 | 0.424 | 0.931 | 0.447 | 0.567 | 0.542 | 0.5 | 0.412 | 0.435
19 | A549 | 1.29 | 1.2 | 1.24 | 1.17 | 0.217 | 0.711 | 0.872 | 0.855 | 0.426 |  |  |  |  | 0.704 |  |  |  |  |  | 
20 | NCI-H1793 | 0.676 | 0.49 | 0.463 | 0.54 | 0.388 |  |  |  |  | 0.349 | 0.38 | 0.374 | 0.347 |  | 0.246 | 0.246 | 0.197 | 0.176 | 0.139 | 0.364

Reference: the supplement of paper PMC10307832
